These are literature values, as cited in patent publication US20240065975A1, “OTF COMPOUND CONNECTED BY SEWING” (LTS LOHMANN THERAPIE-SYSTEME AG, priority 2021, published 2024).

For the series the following is noted: compared with (R)-ketamine.

Take `CNC1(c2ccccc2Cl)CCCCC1=O` (racemic) [(S)-ketamine, (S)-(±)-2-(2-chlorophenyl)-2-(methylamino)cyclohexan-1-one]: the “analgesic and anaesthetic potency relative to the (R) form” value is on record as “approximately three times higher”.
